According to EP0863148A1, “Compounds derived from adenosine, use of such compound as a medicament, method for synthesizing such a compound and intermediates thereof” (K.U. LEUVEN RESEARCH & DEVELOPMENT, priority 1997, dated 1998):

Legend:
adenosine A1 receptor = target: T1, adenosine A1 receptor (Rattus norvegicus, UniProt P25099); assay: Radioligand binding assay, displacement of [3H]DPCPX, in the absence and presence of 1 mM GTP; conditions: for Ki: rat brain cortex, [3H]DPCPX; for GTP shift: ratio of the apparent Ki values in the presence and absence of 1 mM GTP
T1 construct: adenosine A1 receptor in rat brain cortex; from tissue; host or cells: rat brain cortex
T1 sequence (P25099 1-326): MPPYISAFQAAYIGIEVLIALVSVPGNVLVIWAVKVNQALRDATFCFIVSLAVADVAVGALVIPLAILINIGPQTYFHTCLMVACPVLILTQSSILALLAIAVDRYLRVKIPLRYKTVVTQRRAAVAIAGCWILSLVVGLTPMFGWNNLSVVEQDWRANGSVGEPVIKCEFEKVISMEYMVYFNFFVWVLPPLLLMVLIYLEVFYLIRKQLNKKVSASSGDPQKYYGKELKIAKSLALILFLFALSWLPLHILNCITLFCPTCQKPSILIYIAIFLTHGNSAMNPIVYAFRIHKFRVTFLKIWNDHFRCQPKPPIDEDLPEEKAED
Method: The compounds were assayed for A1 affinity (Ki values expressed in µM) using the tritiated antagonist [^3H]-1,3-dipropyl-8-cyclopentylxanthine (DPCPX). Displacement experiments were performed in the absence and presence of 1 mM GTP, allowing the determination of the GTP shift (i.e., the ratio of the apparant Ki values in the presence and absence of GTP, respectively). This shift is an in vitro parameter often indicative for intrinsic activity.

A1 receptor = target: T2, A1 receptor (Homo sapiens, UniProt P30542); conditions: cited from earlier work
T2 sequence (P30542 1-326): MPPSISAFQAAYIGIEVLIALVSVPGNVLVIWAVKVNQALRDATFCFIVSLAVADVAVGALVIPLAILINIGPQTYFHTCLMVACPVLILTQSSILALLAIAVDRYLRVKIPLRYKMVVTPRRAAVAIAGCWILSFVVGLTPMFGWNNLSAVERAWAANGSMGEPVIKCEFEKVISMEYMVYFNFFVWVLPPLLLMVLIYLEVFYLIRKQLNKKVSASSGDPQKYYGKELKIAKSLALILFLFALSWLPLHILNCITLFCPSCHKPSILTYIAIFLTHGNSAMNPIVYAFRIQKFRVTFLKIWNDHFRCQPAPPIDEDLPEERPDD

A2a receptors = assay: Selectivity for A1 vs A2a receptors (method not described); type: binding
Sequence of A2a receptors (P29274 whole entry): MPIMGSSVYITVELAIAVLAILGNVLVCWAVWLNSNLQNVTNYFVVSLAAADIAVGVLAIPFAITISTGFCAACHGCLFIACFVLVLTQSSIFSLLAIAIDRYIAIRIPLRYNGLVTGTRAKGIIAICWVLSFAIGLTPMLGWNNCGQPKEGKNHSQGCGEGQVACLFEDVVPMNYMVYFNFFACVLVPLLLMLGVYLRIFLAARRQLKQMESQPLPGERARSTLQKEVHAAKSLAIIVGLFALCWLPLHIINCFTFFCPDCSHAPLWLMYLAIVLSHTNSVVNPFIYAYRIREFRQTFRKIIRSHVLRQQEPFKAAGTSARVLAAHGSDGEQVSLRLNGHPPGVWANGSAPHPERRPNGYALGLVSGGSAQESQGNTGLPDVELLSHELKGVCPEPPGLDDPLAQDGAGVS

Structure (SMILES) | Ki (adenosine A1 receptor; absence of GTP) [nM] | Ki (adenosine A1 receptor; presence of 1 mM GTP) [nM] | GTP shift (adenosine A1 receptor) | selectivity for A1 vs A2a receptors (A2a receptors) [times] | affinity for A1 receptors (adenosine A1 receptor; stated in words) | affinity for the A1 receptor (A1 receptor; stated in words, background) | drop in affinity (A1 receptor; A1 receptor affinity, removal of the 3'-hydroxyl group of R-PIA) [fold]
OCC1CC(O)C(n2cnc3c(NC4CCCC4)ncnc32)O1 (stereo not shown) [3'-deoxy-CPA, reference compound] | 110 ± 30 | 470 ± 40 | 4.3±1.2 |  |  | submicromolar affinity | 
C[C@H](Cc1ccccc1)Nc1ncnc2c1ncn2[C@@H]1O[C@H](CO)C[C@H]1O [3'-deoxy-R-PIA] |  |  |  |  |  |  | 30
Nc1ncnc2c1ncn2[C@@H]1O[C@H](CO)C[C@H]1O [3'-deoxyadenosine, reference compound] | 7120 ± 3620 | 15200 ± 2000 | 2.1±1.4 |  |  |  | 
O=C(N[C@@H]1[C@@H](O)[C@H](n2cnc3c(NC4CCCC4)ncnc32)O[C@@H]1CO)c1ccccc1 [a, 9-(3-Benzamido-3-deoxy-β-D-xylofuranosyl)-N^6-cyclopentyladenine] | 400 ± 130 | 310 ± 50 | 0.80±0.13 |  |  |  | 
[N-]=[N+]=NC1C(CO)OC(n2cnc3c(NC4CCCC4)ncnc32)C1O (stereo not shown) [compound 3] |  |  |  |  | relatively poor affinity |  | 

More lines, main results first:

Ki (adenosine A1 receptor; absence of GTP) [nM] | Ki (adenosine A1 receptor; presence of 1 mM GTP) [nM] | GTP shift (adenosine A1 receptor) | selectivity for A1 vs A2a receptors (A2a receptors) [times] | affinity for A1 receptors (adenosine A1 receptor; stated in words) | Structure (SMILES) | affinity for the A1 receptor (A1 receptor; stated in words, background) | drop in affinity (A1 receptor; A1 receptor affinity, removal of the 3'-hydroxyl group of R-PIA) [fold]
83 ± 15 | 68 ± 10 | 0.84±0.19 |  |  | Cc1ccc(C(=O)N[C@@H]2[C@@H](O)[C@H](n3cnc4c(NC5CCCC5)ncnc43)O[C@@H]2CO)cc1 [b, 9-[3-Deoxy-3-(4-methylbenzamido)-β-D-xylofuranosyl]-N^6-cyclopentyladenine] |  | 
23.6 ± 2.5 | 17.4 ± 4.2 | 0.73±0.11 | 160 |  | Cc1ccc(C(=O)N[C@@H]2[C@@H](O)[C@H](n3cnc4c(NC5CCCC5)ncnc43)O[C@@H]2CO)cc1C [c, 9-[3-Deoxy-3-(3,4-dimethylbenzamido)-β-D-xylofuranosyl]-N^6-cyclopentyladenine] |  | 
32.5 ± 0.31 | 23.7 ± 1.4 | 0.73±0.09 |  |  | O=C(N[C@@H]1[C@@H](O)[C@H](n2cnc3c(NC4CCCC4)ncnc32)O[C@@H]1CO)c1ccc(Cl)c(Cl)c1 [d, 9-[3-Deoxy-3-(3,4-dichlorobenzamido)-β-D-xylofuranosyl]-N^6-cyclopentyladenine] |  | 
